pEC50: −log10 of the molar value. A value given as a limit tells only on which side of the number the result lay.

One assay concerns the target T1, full length human TREX1 (Homo sapiens, UniProt Q9NSU2).
T1 construct: N-terminally His-Tev tagged full length human TREX1; His-Tev (His tag with TEV protease site) (N); made in house; host or cells: E. coli
T1 sequence (Q9NSU2 1-314): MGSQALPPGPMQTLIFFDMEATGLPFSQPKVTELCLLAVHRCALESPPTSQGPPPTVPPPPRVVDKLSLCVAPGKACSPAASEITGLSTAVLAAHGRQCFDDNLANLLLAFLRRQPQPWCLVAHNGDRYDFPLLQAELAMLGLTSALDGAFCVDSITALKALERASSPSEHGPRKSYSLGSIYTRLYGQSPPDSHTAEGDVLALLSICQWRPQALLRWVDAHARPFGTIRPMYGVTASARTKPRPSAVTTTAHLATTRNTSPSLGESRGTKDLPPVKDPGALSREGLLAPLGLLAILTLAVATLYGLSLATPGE
The assay is described as follows: TREX1 Biochemical Assay (fluorescence assay, degradation of dsDNA substrate). The conditions noted are these: 150 pM TREX1, 60 nM dsDNA substrate, 25 minutes at room temperature; read-out: hTREX1 EC50. In a few lines: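 E. coli-expressed His-Tev-tagged full-length TREX1 (150 pM) with 60 nM quenched-fluorophore dsDNA in Tris pH 7.4, 150 mM NaCl, 100 mM MgCl2, 1% DMSO, 25 min room temperature, 10-point dose-response. EDTA stop; fluorescence 615 nm (ex 570 nm); IC50 from four-parameter fit against pre-quenched and no-inhibitor controls.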

Assay [1] has as its target T2, human TREX2 (residues M44-A279) (Homo sapiens, UniProt Q9BQ50).
T2 construct: human TREX2 (residues M44-A279, expressed in E. coli); His-Tev (His tag with TEV protease site) (N); made in house; host or cells: E. coli
T2 sequence (Q9BQ50 44-279 isoform Q9BQ50-1): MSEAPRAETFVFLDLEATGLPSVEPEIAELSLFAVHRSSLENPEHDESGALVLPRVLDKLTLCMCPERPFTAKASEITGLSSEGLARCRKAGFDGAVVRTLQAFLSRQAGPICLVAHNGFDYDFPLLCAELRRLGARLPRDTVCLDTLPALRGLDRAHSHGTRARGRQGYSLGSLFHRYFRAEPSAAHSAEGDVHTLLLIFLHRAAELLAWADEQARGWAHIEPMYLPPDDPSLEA
The assay is described as follows: TREX2 Biochemical Assay (fluorescence assay, degradation of dsDNA substrate). The conditions noted are these: 2.5 nM TREX2, 60 nM dsDNA substrate, 25 minutes at room temperature; read-out: hTREX2 EC50. Put shortly: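 His-Tev-tagged human TREX2 (M44-A279, E. coli-expressed) at 2.5 nM final, with 60 nM TEX615/quencher-labelled dsDNA in pH 7.4 Tris buffer with MgCl2 and 1.0% DMSO, 10-point dose-response, 25 min at room temperature, then EDTA quench. Fluorescence read at 615 nm (ex 570 nm). IC50 from four-parameter fit against pre-quenched and no-inhibitor controls.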

Take `Cc1ccc(CN(Cc2ccc(Cl)cc2Cl)C(=O)c2cccc(F)c2)cn1` [Compound 110]: the pEC50 (in general, −log10 of the EC50, conventionally taken in molar units) at full length human TREX1 is less than 5.00; in assay [1], less than 4.00.
The like results for `CC[C@@H](c1cccc(OC2COC2)c1Cl)N(Cc1ccc(C(=O)O)nc1)C(=O)c1cc(F)cc(F)c1` [Compound 232] were, in that order, more than 7.00 and 4.00 to 5.00.
The like results for `O=C(c1ccc(Oc2ccccc2)cc1)N(Cc1cccnc1)Cc1ccc(Cl)cc1Cl` [Compound 33] were, in that order, less than 5.00 and less than 4.00.
For `O=C(c1cc(F)cc(F)c1)N(Cc1cccnc1CO)Cc1cccc(Cl)c1Cl` [Compound 180] the same measures were 6.00 to 7.00 and 5.00 to 6.00.

The values are drawn from patent publication US20230233541A1, “SUBSTITUTED BENZAMIDES AS MODULATORS OF TREX1” (Constellation Pharmaceuticals, Inc., priority 2020, published 2023).
